Tests used:
CCR1 [1] = biological target: T1, CCR1 (Homo sapiens, UniProt P32246); assay: Inhibition of MIP-1α (CCL3) binding to its receptor CCR1; details: CCR1 found on inflammatory and immunomodulatory cells; statement in words
T1 sequence (P32246 1-355): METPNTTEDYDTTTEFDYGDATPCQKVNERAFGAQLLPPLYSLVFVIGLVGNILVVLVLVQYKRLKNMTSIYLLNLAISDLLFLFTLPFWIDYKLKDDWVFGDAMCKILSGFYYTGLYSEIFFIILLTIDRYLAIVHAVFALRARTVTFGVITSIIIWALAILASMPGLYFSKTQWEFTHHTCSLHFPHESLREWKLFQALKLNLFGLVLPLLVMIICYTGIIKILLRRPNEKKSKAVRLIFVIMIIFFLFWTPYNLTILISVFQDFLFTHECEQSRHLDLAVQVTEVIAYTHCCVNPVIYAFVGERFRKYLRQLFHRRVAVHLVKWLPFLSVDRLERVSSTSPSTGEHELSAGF

CCR1 [2] = biological target: T1, CCR1; assay: Chemotaxis assay (Boyden chamber, MIP-1α induced migration); format: cell-based; design: THP-1 cells (ATCC TIB-202), primary human monocytes, or primary lymphocytes, isolated by standard techniques can then be added to the upper chambers; endogenous in cells; host or cells: THP-1 cells (ATCC TIB-202), primary human monocytes or primary lymphocytes; details: statement in words
Excerpt: The activity of the compounds of the invention can be assessed according to procedures know to those of ordinary skill in the art. Examples of recognized methods for determining CCR1 induced migration can be found in Coligan, J. E., Kruisbeek, A. M., Margulies, D. H., Shevach, E. M., Strober, W. editors: Current Protocols In Immunology, 6.12.1-6.12.3. (John Wiley and Sons, NY, 1991). One specific example of how to determine the activity of a compound for inhibiting migration is described in detail below.
The ability of compounds to inhibit the chemotaxis to various chemokines can be evaluated using standard 48 or 96 well Boyden Chambers with a 5 micron polycarbonate filter. […] The amount of agonist chosen is that determined to give the maximal amount of chemotaxis in this system (e.g., 1 nM for MIP-1α should be adequate). […]
After a suitable incubation period at 37 degrees centigrade (e.g. 3.5 hours for THP-1 cells, 90 minutes for primary monocytes), the chamber is removed, the cells in the upper chamber aspirated, the upper part of the filter wiped and the number of cells migrating can be determined according to the following method.
For THP-1 cells, the chamber (a 96 well variety manufactured by Neuroprobe) can be centrifuged to push cells off the lower chamber and the number of cells can be quantitated against a standard curve by a color change of the dye fluorocein diacetate. […]

For C[C@@H]1CN(Cc2ccc(F)cc2)[C@@H](C)CN1C(=O)COc1ccc(Cl)cc1CS(=O)(=O)O [(5-Chloro-2-{2-[4-(4-fluoro-benzyl)-(2R,5S)-2,5-dimethyl-piperazin-1-yl]-2-oxo-ethoxy}-phenyl)-methanesulfonic acid], the “inhibition of MIP-1α (CCL3) binding to its receptor CCR1” value (CCR1 [1]) was “potent inhibitor” and the “inhibition of MIP-1α (and related chemokines) induced chemotaxis of THP-1 cells and human leukocytes” value (CCR1 [2]) was “inhibits”.

From patent publication US20050119275A1, “Salt and crystal forms of (5-chloro-2-{2-[4-(4-fluoro-benzyl)-(2R,5S)-2,5-dimethyl-piperazin-1-yl]-2-oxo-ethoxy}-phenyl)-methanesulfonic acid” (Pfizer Inc., priority 2003, published 2005)
